Measured values reported in article PMC8887546, “Design and Synthesis of Brain Penetrant Glycopeptide Analogues of PACAP With Neuroprotective Potential for Traumatic Brain Injury and Parkinsonism” (Frontiers in drug discovery, 2022).

Test system: C57BL/6 mice, diffuse TBI
Assay: Neurological severity score after TBI
Assay type: in vivo, mouse
Conditions: 10 mg/kg i.p. 30 min prior to TBI, 2, 5 and 7 DPI
Procedure: 30 min prior to TBI or sham injury, mice were randomly assigned to a therapeutic group and received an intraperitoneal injection of 2LS80Mel (10 mg/kg) or sterile saline (0.25 ml). Groups were as follows: TBI-2LS80Mel n = 17; TBI-vehicle n = 17; sham n = 22 (vehicle n = 11, 2LS80Mel n = 11).
For injury induction 24 h post-surgery, mice were re-anesthetized with 5% isoflurane delivered for 3 min. The cap was removed from the injury-hub assembly and the dura was visually inspected through the hub to ensure it was intact with no debris. […] Injured mice were monitored for presence of a forearm fencing response and righting reflex times were recorded as indicators of injury severity ([Hosseini and Lifshitz, 2009]). […] After spontaneously righting, mice were placed in a heated recovery cage and monitored until they were ambulatory (approximately 5–15 min) before being returned to their piezoelectric sleep cage (see below). […]
Neurological impairments were assessed at 2, 5, and 7 DPI using an 8-point NSS paradigm adapted from those previously used in experimental models of TBI and previously reported by our lab ([Chen et al., 1996]; [Semple et al., 2010]; [Pleasant et al., 2011]; [Ziebell et al., 2011]; [Rowe et al., 2018]; [Rowe et al., 2019]). […]

For `CC[C@H](C)[C@H](NC(=O)CNC(=O)[C@H](CC(=O)O)NC(=O)[C@H](CO)NC(=O)[C@@H](N)Cc1c[nH]cn1)C(=O)N[C@@H](Cc1ccccc1)C(=O)N[C@H](C(=O)N[C@@H](CC(=O)O)C(=O)N[C@@H](CO)C(=O)N[C@@H](Cc1ccc(O)cc1)C(=O)N[C@@H](CO)C(=O)N[C@@H](CCCNC(=N)N)C(=O)N[C@@H](Cc1ccc(O)cc1)C(=O)N[C@@H](CCCNC(=N)N)C(=O)N[C@@H](CCCCN)C(=O)N[C@@H](CCC(N)=O)C(=O)N[C@@H](CC(C)C)C(=O)N[C@@H](C)C(=O)N[C@H](C(=O)N[C@@H](CCCCN)C(=O)N[C@@H](CCCCN)C(=O)N[C@@H](Cc1ccc(O)cc1)C(=O)N[C@@H](CC(C)C)C(=O)N[C@@H](C)C(=O)N[C@@H](C)C(=O)N[C@H](C(=O)N[C@@H](CC(C)C)C(=O)N[C@@H](CO[C@@H]1O[C@H](CO[C@H]2O[C@H](CO)[C@H](O)[C@H](O)[C@H]2O)[C@@H](O)[C@H](O)[C@H]1O)C(N)=O)C(C)C)C(C)C)[C@@H](C)O` [Compound 2LS80Mel], the “Neurological severity score (sensorimotor deficits)” value was “deficits were prevented”.
